Experimental data published in patent US20180201592A1, “2-AMINO-1,3,4-THIADIAZINE AND 2-AMINO-1,3,4-OXADIAZINE BASED ANTIFUNGAL AGENTS” (F2G Limited, priority 2015, published 2018).

Assays:
Details in all cases: banded MIC grade
Aspergillus flavus = assay: Minimum inhibitory concentration, YAG medium; type: cell-based
Method in brief: (§1)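 Twofold aqueous dilution series, prepared from a DMSO stock (5 mg/mL), were inoculated with Aspergillus spp. spores; incubation lasted 24 hrs at 35° C before OD 485 nm readings.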

Aspergillus terreus = assay: Minimum inhibitory concentration, YAG medium; type: cell-based
Method in brief: as §1

Aspergillus niger = assay: Minimum inhibitory concentration, YAG medium; type: cell-based
Method in brief: as §1

A. terreus 49 [1] = assay: Minimum inhibitory concentration, YAG medium; type: cell-based, Aspergillus terreus
Method in brief: as §1

A. fumigatus = assay: Minimum inhibitory concentration, RPMI medium; type: cell-based
Protocol: (§2) Between 1 and 5 mgs of compound were accurately weighed out into a sterile Eppendorf tube. The compound was dissolved in DMSO to give a solution containing 5 mg/mL. Tubes were stored at −20° C. until required.
(§3) On the day of testing thawed solutions were vortex mixed to ensure homogeneity. 30 μL of solution was removed and added to 570 μL of sterile water in a separate sterile Eppendorf. The thoroughly mixed solution was used to prepare a series of doubling dilutions in water, in a deep well plate. Thirteen replicate plates were prepared using a Minitrak by aspirating 20 μL from each well into eleven clear polystyrene 96 well plates.
(§4) Assays were also performed in RPMI medium (Roswell Park Memorial Media 1640). To perform MIC tests in this medium, dilutions of compounds are prepared in microtitre plates as described above. Fungal strains to be tested are grown and harvested in an identical manner to that described above, and each organism suspension was diluted in RPMI medium, typically containing 2% glucose and 0.135 M MOPS buffer (pH 7.0) to 0.5-2×10^4cfu/mL, rather than in YAG medium. 80 μL of an organism suspension was added to each well of the plate containing drug dilutions.
(§5) This produced MIC plates with a drug range 50-0.05 mg/L and organism inocula of 1-2×10^4 cfu/mL. All plates were incubated for 24-48 hrs at 35° C. Growth was assessed by monitoring the optical density at 485 nm for each well. The MIC of a compound is the lowest drug concentration that inhibits growth of an organism by >80% compared with a drug free control. The following organisms were tested: C. albicans, C. parapsilosis, C. tropicalis, C. glabrata, C. krusei, A. niger, A. fumigatus, A. terreus, A. flavus, A. terreus 49, and A. fumigatus 210.

A. fumigatus 210 [2] = assay: Minimum inhibitory concentration, RPMI medium; type: cell-based
Protocol: as §2, §3, §4, §5

A. terreus = assay: Minimum inhibitory concentration, RPMI medium; type: cell-based
Method in brief: (§6)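 Incubated at 35° C for 24-48 hrs in RPMI 1640 with twofold water dilutions of compound (from 5 mg/mL stock in DMSO); absorbance at 485 nm indicated growth.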

C. glabrata = assay: Minimum inhibitory concentration, RPMI medium; type: cell-based
Method in brief: as §6

C. parapsilosis = assay: Minimum inhibitory concentration, RPMI medium; type: cell-based
Method in brief: as §6

A. flavus = assay: Minimum inhibitory concentration, RPMI medium; type: cell-based
Method in brief: as §6

A. niger = assay: Minimum inhibitory concentration, RPMI medium; type: cell-based
Method in brief: as §6

C. albicans = assay: Minimum inhibitory concentration, RPMI medium; type: cell-based
Method in brief: as §6

C. tropicalis = assay: Minimum inhibitory concentration, RPMI medium; type: cell-based
Method in brief: as §6

A. terreus 49 [3] = assay: Minimum inhibitory concentration, RPMI medium; type: cell-based
Method in brief: as §6

C. krusei = assay: Minimum inhibitory concentration, RPMI medium; type: cell-based
Method in brief: as §6

A. fumigatus 210 [4] = assay: Minimum inhibitory concentration, YAG medium; type: cell-based, Aspergillus fumigatus
Method in brief: (§7)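 MIC, in mg/L, defined as the lowest drug level inhibiting growth by >70% relative to drug-free wells, judged by OD 485 nm after 24 hrs at 35° C. Spores (1-2×10^4 cfu/mL) were grown in YAG medium against doubling dilutions, usually 50-0.05 mg/L, repeated at 0.5-0.0005 mg/L where needed.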

Aspergillus fumigatus = assay: Minimum inhibitory concentration, YAG medium; type: cell-based
Method in brief: as §7

Compound	MIC grade, A. FLAVUS, YAG media (Aspergillus flavus)	MIC grade, A. TERREUS, YAG media (Aspergillus terreus)	MIC grade, A. NIGER, YAG media (Aspergillus niger)	MIC grade, A. TERREUS 49, YAG media (A. terreus 49 [1])	MIC grade, A. FUMIGATUS, RPMI media (A. fumigatus)	MIC grade, A. FUMIGATUS 210, RPMI media (A. fumigatus 210 [2])	MIC grade, A. TERREUS, RPMI media (A. terreus)	MIC grade, C. GLABRATA, RPMI media (C. glabrata)	MIC grade, C. PARAPSILOSIS, RPMI media (C. parapsilosis)	MIC grade, A. FLAVUS, RPMI media (A. flavus)	MIC grade, A. NIGER, RPMI media (A. niger)	MIC grade, C. ALBICANS, RPMI media (C. albicans)	MIC grade, C. TROPICALIS, RPMI media (C. tropicalis)	MIC grade, A. TERREUS 49, RPMI media (A. terreus 49 [3])	MIC grade, C. KRUSEI, RPMI media (C. krusei)	MIC grade, A. FUMIGATUS 210, YAG media (A. fumigatus 210 [4])	MIC grade, A. FUMIGATUS, YAG media (Aspergillus fumigatus)
NC1=NN=C(CCCCOCc2cccc(CCc3ccccc3)c2)CS1	2 (2: 1-5 mg/L)	2 (2: 1-5 mg/L)	2 (2: 1-5 mg/L)	2 (2: 1-5 mg/L)	1 (1: ≥20 mg/L)	1 (1: ≥20 mg/L)	1 (1: ≥20 mg/L)	1 (1: ≥20 mg/L)	2 (2: 5-20 mg/L)	2 (2: 5-20 mg/L)	1 (1: ≥20 mg/L)	2 (2: 5-20 mg/L)	2 (2: 5-20 mg/L)	1 (1: ≥20 mg/L)	2 (2: 5-20 mg/L)	1 (1: ≥5 mg/L)	2 (2: 1-5 mg/L)
NC1=NN=C(CCCCOCc2cc(F)cc(F)c2)CS1	4 (4: <0.2 mg/L)	4 (4: <0.2 mg/L)	4 (4: <0.2 mg/L)	4 (4: <0.2 mg/L)	4 (4: <1 mg/L)	2 (2: 5-20 mg/L)	3 (3: 1-5 mg/L)	3 (3: 1-5 mg/L)	4 (4: <1 mg/L)	3 (3: 1-5 mg/L)	3 (3: 1-5 mg/L)	4 (4: <1 mg/L)	4 (4: <1 mg/L)	3 (3: 1-5 mg/L)	4 (4: <1 mg/L)	4 (4: <0.2 mg/L)	4 (4: <0.2 mg/L)
NC1=NN=C(CCCCOCCCc2ccc(F)cc2F)CS1	4 (4: <0.2 mg/L)	3 (3: 0.2-1 mg/L)	3 (3: 0.2-1 mg/L)	3 (3: 0.2-1 mg/L)	2 (2: 5-20 mg/L)	1 (1: ≥20 mg/L)	2 (2: 5-20 mg/L)	2 (2: 5-20 mg/L)	4 (4: <1 mg/L)	3 (3: 1-5 mg/L)	2 (2: 5-20 mg/L)	4 (4: <1 mg/L)	3 (3: 1-5 mg/L)	2 (2: 5-20 mg/L)	4 (4: <1 mg/L)	3 (3: 0.2-1 mg/L)	3 (3: 0.2-1 mg/L)
Cc1cccc(COCCCCC2=NN=C(N)SC2)c1	3 (3: 0.2-1 mg/L)	3 (3: 0.2-1 mg/L)	3 (3: 0.2-1 mg/L)	3 (3: 0.2-1 mg/L)	3 (3: 1-5 mg/L)	2 (2: 5-20 mg/L)	2 (2: 5-20 mg/L)	2 (2: 5-20 mg/L)	3 (3: 1-5 mg/L)	3 (3: 1-5 mg/L)	2 (2: 5-20 mg/L)	3 (3: 1-5 mg/L)	3 (3: 1-5 mg/L)	2 (2: 5-20 mg/L)	3 (3: 1-5 mg/L)	3 (3: 0.2-1 mg/L)	3 (3: 0.2-1 mg/L)
NC1=NN=C(CCCCOCc2cccc(C3CC3)c2)CS1	3 (3: 0.2-1 mg/L)	3 (3: 0.2-1 mg/L)	3 (3: 0.2-1 mg/L)	3 (3: 0.2-1 mg/L)	3 (3: 1-5 mg/L)	2 (2: 5-20 mg/L)	2 (2: 5-20 mg/L)	2 (2: 5-20 mg/L)	4 (4: <1 mg/L)	2 (2: 5-20 mg/L)	2 (2: 5-20 mg/L)	4 (4: <1 mg/L)	4 (4: <1 mg/L)	2 (2: 5-20 mg/L)	4 (4: <1 mg/L)	3 (3: 0.2-1 mg/L)	3 (3: 0.2-1 mg/L)
NC1=NN=C(CCCCOCc2ccccc2C(F)(F)F)CS1	2 (2: 1-5 mg/L)	2 (2: 1-5 mg/L)	3 (3: 0.2-1 mg/L)	2 (2: 1-5 mg/L)	1 (1: ≥20 mg/L)	1 (1: ≥20 mg/L)	1 (1: ≥20 mg/L)	1 (1: ≥20 mg/L)	1 (1: ≥20 mg/L)	1 (1: ≥20 mg/L)	1 (1: ≥20 mg/L)	2 (2: 5-20 mg/L)	2 (2: 5-20 mg/L)	1 (1: ≥20 mg/L)	2 (2: 5-20 mg/L)	2 (2: 1-5 mg/L)	3 (3: 0.2-1 mg/L)
NC1=NN=C(CCCCOCc2cccc(Cl)c2)CS1	4 (4: <0.2 mg/L)	4 (4: <0.2 mg/L)	4 (4: <0.2 mg/L)	4 (4: <0.2 mg/L)	4 (4: <1 mg/L)	2 (2: 5-20 mg/L)	3 (3: 1-5 mg/L)	3 (3: 1-5 mg/L)	4 (4: <1 mg/L)	4 (4: <1 mg/L)	3 (3: 1-5 mg/L)	4 (4: <1 mg/L)	4 (4: <1 mg/L)	3 (3: 1-5 mg/L)	4 (4: <1 mg/L)	4 (4: <0.2 mg/L)	4 (4: <0.2 mg/L)
NC1=NN=C(CCCCOCc2ccc(Cl)c(F)c2)CS1	4 (4: <0.2 mg/L)	4 (4: <0.2 mg/L)	4 (4: <0.2 mg/L)	4 (4: <0.2 mg/L)	4 (4: <1 mg/L)	2 (2: 5-20 mg/L)	3 (3: 1-5 mg/L)	4 (4: <1 mg/L)	4 (4: <1 mg/L)	4 (4: <1 mg/L)	4 (4: <1 mg/L)	4 (4: <1 mg/L)	4 (4: <1 mg/L)	3 (3: 1-5 mg/L)	4 (4: <1 mg/L)	4 (4: <0.2 mg/L)	4 (4: <0.2 mg/L)
